Measured values: the supplement of paper PMC10307832

These cell lines were tested with CC(C)(C)c1cc(NC(=O)Nc2ccc(-c3cn4c(n3)sc3cc(OCCN5CCOCC5)ccc34)cc2)no1 [Quizartinib] + NC(=O)Nc1cc(-c2cccc(F)c2)sc1C(=O)N[C@H]1CCCNC1 [AZD7762] (partner 0.2 µM) (assay: relative viability (nuclei count vs DMSO), 5 days (fraction); higher = more cells survive). Conditions: first compound 0.001 µM.
Method in brief: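 Lung cancer cell lines in 1536-well plates got either a single drug or a fixed anchor-drug dose together with five library-drug doses (not always all listed) in √10 steps, by pin tool, on the day after seeding. Nuclei were counted after 5 days, and relative viability is the treated-to-vehicle ratio of nuclei counts. Values are medians of duplicate plates.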

Row | Cell Line | relative viability
1 | NCI-H2347 | 0.728
2 | LCLC-103H | 0.664
3 | ABC-1 | 0.717
4 | NCI-H1734 | 0.736
5 | HCC-78 | 0.671
6 | HCC-15 | 1.35
7 | HARA | 0.401
8 | NCI-H1975 | 0.729
9 | NCI-H1944 | 0.493
10 | NCI-H2126 | 1.03
11 | EMC-BAC-2 | 0.909
12 | NCI-H2170 | 0.906
13 | NCI-H358 | 0.578
14 | CAL-12T | 0.632
15 | LK-2 | 0.456
16 | HOP-62 | 0.639
17 | PC-14 | 0.31

Row | Cell Line | relative viability
18 | NCI-H1993 | 0.759
19 | NCI-H2405 | 0.919
20 | NCI-H3122 | 0.964
21 | A-427 | 0.467
22 | LOU-NH91 | 0.749
23 | NCI-H596 | 1.12
24 | NCI-H1666 | 0.851
25 | NCI-H23 | 0.302
26 | NCI-H838 | 0.769
27 | NCI-H322M | 0.531
28 | NCI-H1793 | 0.483
29 | NCI-H441 | 0.872
30 | NCI-H727 | 0.667
31 | 201T | 0.611
32 | NCI-H1755 | 0.486
33 | NCI-H2085 | 0.861

Same assay, conditions: first compound 0.003162 µM

Row | Cell Line | relative viability
34 | NCI-H2347 | 0.696
35 | LCLC-103H | 0.701
36 | ABC-1 | 0.783
37 | NCI-H1734 | 0.54
38 | HCC-78 | 0.805
39 | HCC-15 | 1.13
40 | HARA | 0.193
41 | NCI-H1975 | 0.721
42 | NCI-H1944 | 0.414
43 | NCI-H2126 | 0.923
44 | EMC-BAC-2 | 1.21
45 | NCI-H2170 | 0.848
46 | NCI-H358 | 0.448
47 | CAL-12T | 0.663
48 | LK-2 | 0.405
49 | HOP-62 | 0.529
50 | PC-14 | 0.417

Row | Cell Line | relative viability
51 | NCI-H1993 | 0.699
52 | NCI-H2405 | 0.741
53 | NCI-H3122 | 1.02
54 | A-427 | 0.676
55 | LOU-NH91 | 0.768
56 | NCI-H596 | 1.07
57 | NCI-H1666 | 0.803
58 | NCI-H23 | 0.173
59 | NCI-H838 | 0.925
60 | NCI-H322M | 0.56
61 | NCI-H1793 | 0.414
62 | NCI-H441 | 1.04
63 | NCI-H727 | 0.545
64 | 201T | 0.573
65 | NCI-H1755 | 0.392
66 | NCI-H2085 | 0.9
67 | NCI-H460 | 0.591

Same assay, conditions: first compound 0.01 µM

Row | Cell Line | relative viability
68 | NCI-H2347 | 0.799
69 | LCLC-103H | 0.746
70 | ABC-1 | 0.784
71 | NCI-H1734 | 0.603
72 | HCC-78 | 0.539
73 | HCC-15 | 0.951
74 | HARA | 0.515
75 | NCI-H1975 | 0.743
76 | NCI-H1944 | 0.48
77 | NCI-H2126 | 0.982
78 | EMC-BAC-2 | 1.16
79 | NCI-H2170 | 0.914
80 | NCI-H358 | 0.555
81 | CAL-12T | 0.759
82 | LK-2 | 0.474
83 | HOP-62 | 0.554
84 | PC-14 | 0.327

Row | Cell Line | relative viability
85 | NCI-H1993 | 0.87
86 | NCI-H2405 | 0.789
87 | NCI-H3122 | 0.971
88 | A-427 | 0.722
89 | LOU-NH91 | 0.739
90 | NCI-H596 | 1.02
91 | NCI-H1666 | 0.888
92 | NCI-H23 | 0.277
93 | NCI-H838 | 1.04
94 | NCI-H322M | 0.557
95 | NCI-H1793 | 0.451
96 | NCI-H441 | 1.14
97 | NCI-H727 | 0.564
98 | 201T | 0.653
99 | NCI-H1755 | 0.489
100 | NCI-H2085 | 1.04
101 | NCI-H460 | 0.648

Same assay, conditions: first compound 0.03162 µM

Row | Cell Line | relative viability
102 | NCI-H2347 | 0.768
103 | LCLC-103H | 0.866
104 | ABC-1 | 0.913
105 | NCI-H1734 | 0.522
106 | HCC-78 | 0.535
107 | HCC-15 | 1.14
108 | HARA | 0.26
109 | NCI-H1975 | 0.587
110 | NCI-H1944 | 0.57
111 | NCI-H2126 | 0.954
112 | NCI-H2170 | 0.973
113 | CAL-12T | 0.495
114 | LK-2 | 0.244
115 | HOP-62 | 0.688
116 | PC-14 | 0.22
117 | NCI-H1993 | 0.672

Row | Cell Line | relative viability
118 | NCI-H2405 | 0.745
119 | NCI-H3122 | 1.02
120 | A-427 | 0.639
121 | LOU-NH91 | 0.722
122 | NCI-H596 | 1.04
123 | NCI-H1666 | 0.8
124 | NCI-H23 | 0.195
125 | NCI-H838 | 0.859
126 | NCI-H322M | 0.531
127 | NCI-H1793 | 0.409
128 | NCI-H441 | 0.991
129 | NCI-H727 | 0.457
130 | 201T | 0.61
131 | NCI-H1755 | 0.526
132 | NCI-H2085 | 0.87
133 | NCI-H460 | 0.544

Same assay, conditions: first compound 0.1 µM

Row | Cell Line | relative viability
134 | NCI-H2347 | 0.749
135 | LCLC-103H | 0.829
136 | ABC-1 | 0.827
137 | NCI-H1734 | 0.628
138 | HCC-78 | 0.777
139 | HCC-15 | 0.958
140 | HARA | 0.334
141 | NCI-H1975 | 0.651
142 | NCI-H1944 | 0.527
143 | NCI-H2126 | 1.01
144 | EMC-BAC-2 | 1.19
145 | NCI-H2170 | 1.03
146 | NCI-H358 | 0.5
147 | CAL-12T | 0.689
148 | LK-2 | 0.293
149 | HOP-62 | 0.463
150 | PC-14 | 0.457
151 | NCI-H1993 | 0.914
152 | NCI-H2405 | 0.797
153 | NCI-H3122 | 0.962
154 | A-427 | 0.718
155 | LOU-NH91 | 0.827
